This note sets out measurements from ChEMBL document CHEMBL4811228, “Design, Synthesis, and Activity Evaluation of Novel Acyclic Nucleosides as Potential Anticancer Agents In Vitro and In Vivo” (J Med Chem, 2021).

The test system of assay [1] is SW480. Kind of assay: Binding affinity to 75kDa protein in human SW480 cells incubated for overnight by pull down based western blot analysis. The format is cell-based. (Immunoblotting shows a protein as a band on a membrane.)
In assay [2] the test system is SW480. Briefly: Antiproliferative activity against human SW480 cells assessed as reduction in cell viability incubated for 48 hrs by MTT assay. The format is functional, cell-based. To be noted: SW480, 48 h. In general terms: Tetrazolium assays rely on reduction of a dye to a coloured formazan, in cell work by metabolically active cells.
The test system of assay [3] is SW480. Kind of assay: Binding affinity to 75kDa protein in human SW480 cells incubated for overnight by pull down based silver staining analysis. The format is cell-based.
Assay [4] relates to HCT-116. Kind of assay: Antiproliferative activity against human HCT-116 cells assessed as reduction in cell viability incubated for 48 hrs by MTT assay. The format is functional, cell-based. To be noted: HCT-116, 48 h.
In assay [5] the test system is HCT-116. Briefly: Potency index, ratio of 5-FU IC50 to test compound IC50 for antiproliferative activity against human HCT-116 cells. Type of assay: functional.
The next assay concerns U-87 MG. Kind of assay: Antiproliferative activity against human U-87 MG cells assessed as reduction in cell viability incubated for 48 hrs by MTT assay. Type of assay: functional, cell-based, U-87MG ATCC.
A further assay relates to HeLa. Briefly: Antiproliferative activity against human HeLa cells assessed as reduction in cell viability incubated for 48 hrs by MTT assay. The format is functional, cell-based.
Another assay concerns A549. Kind of assay: Antiproliferative activity against human A549 cells assessed as reduction in cell viability incubated for 48 hrs by MTT assay. The format is functional, cell-based. To be noted: A549, 48 h.

Calls of active or inactive are those of the source. No cut-off for these calls is given here.

For the molecule `C#CCCC1(CCN)N=N1`, the outcome in the assay with SW480 [1] was inactive.
For the molecule `CCCCCCCCCC(CC(=O)NCCCCCNC(=O)CCCC[C@@H]1SC[C@@H]2NC(=O)N[C@@H]21)n1cnc2c(Cl)ncnc21` (mixture of isomers), the IC50 (usually the midpoint of a concentration-inhibition curve) came to 45.2 µM in the assay with SW480 [2] and 44.7 µM in the assay with HCT-116 [4]. Further, in the assay with SW480 [3], the result was Active.
`CCCCCCCCCC(CCO)n1cnc2c(N)nc(Cl)nc21` (racemic): the 50% inhibitory concentration (IC50) with SW480 [2] was 12.2 µM; with HCT-116 [4], 14.8 µM.
The matching figures for `CCCCCCCCC(CCO)n1c(Br)nc2c(Cl)ncnc21` (racemic): 17.8 µM and 22.4 µM.
The matching figures for `CCCCCC(CCO)n1cnc2cncnc21` (racemic): greater than 50 µM and greater than 50 µM.
Regarding `OCCC(CO)n1cnc2c(Cl)ncnc21` (racemic), the IC50 in the assay on SW480 [2] and in the assay with HCT-116 [4] was greater than 50 µM each time.
On to `CCCCCCCCCC(CCOCP(=O)(OCC)OCC)n1cnc2c(Cl)ncnc21` (racemic), for which the IC50 stood at 4.79 µM in the assay with SW480 [2] and 9.11 µM in the assay on HCT-116 [4].
Regarding `CCCCCCCCC(CCO)n1cnc2c(N)nc(Cl)nc21` (racemic), the IC50 with SW480 [2] worked out at 13.1 µM; in the assay on HCT-116 [4], 21 µM.
The matching figures for `CCCCCC(CCO)n1cnc2c(N)nc(Cl)nc21` (racemic): greater than 50 µM and greater than 50 µM.
`CCCCCCCCCCC(CCO)n1cnc2c(N)ncnc21` (racemic): the IC50 in the assay on HCT-116 [4] turned out to be 2.59 µM. Besides, in the assay with HCT-116 [5], the “Ratio IC50” value came out at 4.
As for `CCCCCCC(CCO)n1cnc2c(N)nc(Cl)nc21` (racemic), the IC50 in the assay on SW480 [2] and in the assay with HCT-116 [4] was greater than 50 µM in each case.
Turning to `CCCCCCCCCC(CCn1cc(-c2ccccc2)nn1)n1cnc2c(Cl)ncnc21` (racemic), the figures for the IC50 in the assay with SW480 [2] and with HCT-116 [4] were 9.92 µM and 13.5 µM, respectively.
The matching figures for `C=C(CO)C(c1ccccc1)n1cnc2c(Cl)ncnc21` (racemic): 12.9 µM and 33.3 µM.
With `C#CCCC1(CCNC(=O)CC(CCCCCCCCC)n2cnc3c(Cl)ncnc32)N=N1` (racemic), the outcome with SW480 [1] and with SW480 [3] was Active. In addition, the IC50 with SW480 [2] is 13 µM; in the assay on HCT-116 [4] it was 21.5 µM.
On to `CCCCCCCC(CCO)n1c(Br)nc2c(Cl)ncnc21` (racemic), for which the IC50 stood at 14.4 µM in the assay with SW480 [2] and 16.2 µM in the assay with HCT-116 [4].
As for `CCCCCCCCCCCC(CCO)n1cnc2c(N)nc(Cl)nc21` (racemic), the IC50 was 17.8 µM with SW480 [2] and 19.9 µM in the assay on HCT-116 [4].
The matching figures for `C=C(CO)C(CCCCCCCC)n1cnc2c(Cl)ncnc21` (racemic): 16.2 µM and 19.4 µM.
The matching figures for `CCCCCCCC(CCO)n1cnc2c(N)nc(Cl)nc21` (racemic): greater than 50 µM and greater than 50 µM.
In the case of `C=C(CO)C(CCCCCC)n1cnc2c(Cl)ncnc21` (racemic), the values for the IC50 in the assay with SW480 [2] and in the assay on HCT-116 [4] were 32 µM and 30.2 µM, respectively.
On the same counts, the results for `CCCCCCC(CCO)n1c(Br)nc2c(Cl)ncnc21` (racemic) are 14.1 µM and 16.1 µM.
The matching figures for `CCCCCCCCCC(CCO)n1c(Br)nc2c(Cl)ncnc21` (racemic): 25 µM and 26.9 µM.
The matching figures for `CCCCC(CCO)n1cnc2cncnc21` (racemic): greater than 50 µM and greater than 50 µM.
As for `CCCCCC(CCO)n1c(Br)nc2c(Cl)ncnc21` (racemic), the IC50 was 23.8 µM with SW480 [2] and 18.3 µM in the assay on HCT-116 [4].
The matching figures for `CCCCCCCCCC(CCOCP(=O)(O)O)n1cnc2c(Cl)ncnc21` (racemic): greater than 50 µM and greater than 50 µM.
On the same counts, the results for `C=C(CO)C(CCCCCCCCC)n1cnc2c(Cl)ncnc21` (racemic) are 27.6 µM and greater than 50 µM.
On the same counts, the results for `CCCCCCCCCCC(CCO)n1cnc2c(N)nc(Cl)nc21` (racemic) are 13.1 µM and 11.8 µM.
In the case of `CCCCCCCCCC(CCN=[N+]=[N-])n1cnc2c(Cl)ncnc21` (racemic), the IC50 in the assay on SW480 [2] is 1.2 µM; in the assay on HCT-116 [4], 1.04 µM.
The matching figures for `CCCCCCCCCC(CCCl)n1cnc2c(Cl)ncnc21` (racemic): 7.18 µM and 10.2 µM.
The matching figures for `C=C(CO)C(CCCCC)n1cnc2c(Cl)ncnc21` (racemic): greater than 50 µM and greater than 50 µM.
As for `C=C(CO)C(CCCCCCC)n1cnc2c(Cl)ncnc21` (racemic), the IC50 with SW480 [2] is 29.4 µM; in the assay on HCT-116 [4], 22.4 µM.
Turning to `CCCCCCCCCC(CCOS(C)(=O)=O)n1cnc2c(Cl)ncnc21` (racemic), the figures for the IC50 in the assay with SW480 [2] and in the assay with HCT-116 [4] were 5.39 µM and 5.44 µM, respectively.
On the same counts, the results for `CCCCCCC(CCO)n1cnc2cncnc21` (racemic) are greater than 50 µM and greater than 50 µM.
As to `O=c1[nH]cc(F)c(=O)[nH]1` [FLUOROURACIL], the IC50 in the assay on U-87 MG is greater than 50 µM; in the assay with SW480 [2] it was 9.7 µM; in the assay on HCT-116 [4] it was 10.8 µM; with HeLa, greater than 50 µM; in the assay on A549, greater than 50 µM.
